# Assay results published in patent US10682371B2, “Small molecule conjugates specifically activated in tumor microenvironment for targeting and use thereof” (priority 2014, dated 2020).
# “Also recorded” adds a separate entry of the source.
# What was measured:
# [1] = biological target: T1, asparagine endopeptidase (Homo sapiens, UniProt Q99538)
# T1 sequence (Q99538 26-323 limits assumed): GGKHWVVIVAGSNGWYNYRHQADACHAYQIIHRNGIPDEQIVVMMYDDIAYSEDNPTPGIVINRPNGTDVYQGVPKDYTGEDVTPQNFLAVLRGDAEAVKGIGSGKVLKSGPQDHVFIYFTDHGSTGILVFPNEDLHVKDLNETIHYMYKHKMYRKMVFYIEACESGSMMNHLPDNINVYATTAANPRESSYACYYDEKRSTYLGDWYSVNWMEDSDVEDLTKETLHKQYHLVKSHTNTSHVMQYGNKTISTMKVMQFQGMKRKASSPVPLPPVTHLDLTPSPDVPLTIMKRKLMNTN
# Method: Reduction of reactant and increase of product were detected by HPLC, thereby comparing the activation efficiency of these compounds.
# When R1 is 2-(2-Methoxyethoxy)Acetyl, and R3 is Ala, activation study and efficacy study were carried out by using compounds having different cleavable linker. The study methods are identical to those in Examples 10, 11 and 12. The in vitro activation efficiency was tested by asparagine endopeptidase and the tumor inhibition rate was tested by using human breast cancer MDA-MB231 model.
# [2] = test system: Mice; assay: Toxicity of Legutaxel injected at tail vein weekly for 3 times, observed over 21 days; format: in vivo
# Method: Mice were injected with Legutaxel at tail vein weekly for 3 times. […] Therefore, Legutaxel's dose could at least reach 160 mg/kg/day during treatment.
# [3] = test system: Human colon cancer HT-29; assay: Multiple tumor models in nude mice: HT-29; format: in vivo
# Method: (§1) 1) Corresponding tumor cells were purchased from American type culture collection (ATCC) and identified according the specification provided by ATCC. Cells were cultivated in DMEM culture solution containing 10% fetal bovine serum at 37° C. and 5% CO2. The cells were passaged for every three days and cells within the 15th passage were used.
# 2) Production of tumor. 5×10^6 corresponding cells were subcutaneously injected to the back of the nude mice. Mice were randomly grouped after the tumor reached at least 100 mm^3. Then treatment began and the day on which the treatment began was day 1.
# (§2) 3) Course of treatment. […] The control group was administered by physiological saline. Animals were administered once weekly for three weeks.
# 3) Course of treatment. According to the clinical application of A1, A1 was administered in a dose of ⅙ MTD, i.v., 17.6 μmol/kg. The control group was administered by physiological saline. Animals were administered once weekly for three weeks.
# 3) Course of treatment. According to the clinical application of B1, B1 was administered in a dose of ⅙ MTD, i.v., 17.6 μmol/kg. The control group was administered by physiological saline. Animals were administered once weekly for three weeks.
# as §2, §2
# [4] = test system: tumor-derived immunosuppressive T cells (T reg: CD4+, CD25+, Foxp3+); CD8 T cells; assay: Immunological stimulation test in mice receiving tumor treatment (T reg, CD8 T cells); format: in vivo
# From the text: We further studied the immunological stimulation property of Legutaxel. […] On the contrary, the index for tumor-derived immunosuppressive T cells in treatment group by Legutaxel decreased due to targeted chemotherapy (see panels in FIGS. 3A and 3B).
# [5] = test system: MDA-MB231 tumor tissue; assay: Activation efficiency by MDA-MB231 tumor tissue (HPLC); format: biochemical
# Method: At 37 °C, sample compounds were added into 100 μg acidized tumor tissue homogenates in a concentration of 1 mg/ml.
# In the experiments, at 37 °C, compounds were added into proteases in 100 μg acidized tumor tissue homogenates in a concentration of 1 mg/ml. […] Meanwhile certain compounds produced in the screening were compared and their activation efficiency in same tissue was analyzed.
# [6] = test system: Human prostate cancer PC-3 cells; assay: Tumor treatment in nude mice, PC-3 model (Example 51); format: in vivo
# Method: as §1, with “Human prostate cancer PC-3” for “Corresponding tumor”
# 2) Production of tumor. 5×10^6PC-3 cells were subcutaneously injected to the back of the nude mice. Mice were randomly grouped after the tumor reached at least 100 mm^3. Then treatment began and the day on which the treatment began was day 1.
# According to the clinical application of D1, D2, D3 and D4, drugs were intravenously injected (IV). […]. The control group was administered by physiological saline. Drugs were administered once weekly for four weeks.
# [7] = Maximum tolerated dose (MTD) / acute toxicity by single intravenous injection; conditions: female, BALB/C, mouse, in vivo, iv
# [8] = Table 48, nude mice, PC-3, IV once weekly for four weeks, D1-D4 25 mg/kg, Docetaxel […], Day 10
# [9] = Table 48, nude mice, PC-3, IV once weekly for four weeks, D1-D4 25 mg/kg, Docetaxel […], Day 24
compound,measurement,setting,value
4-N—(N—(N—(N-(6-maleimido caproyl)-L-alanyl)-L-alanyl)-L-asparaginyl)-amino benzyl alcohol-MMAE-carbamate [Compound S6],"Activation by asparagine endopeptidase, in words",[1],cannot be activated; also recorded: not activated
same,Cleaving efficiency,"[1]; different cleavable linkers of MMAE and Doxorubicin, in vitro activation by asparagine endopeptidase",25.6%
"COCCOCC(=O)N[C@H](C)C(=O)N[C@H](C)C(=O)N[C@H](CC(N)=O)C(=O)Nc1ccc(COC(=O)OC(C(=O)OC2C[C@@]3(O)C(OC(=O)c4ccccc4)[C@@H]4C5(OC(C)=O)COC5C[C@H](O)[C@@]4(C)C(=O)[C@H](OC(C)=O)C(=C2C)C3(C)C)[C@@H](NC(=O)c2ccccc2)c2ccccc2)cc1 (stereo in doubt) [S1′, 2-(2-methoxyethoxy) acetylamino-L-Ala-L-Ala-L-Asn-p-amino-benzyl-paclitaxel]",Dose that can be reached during treatment,[2]; tail vein weekly for 3 times,≥ 160 mg/kg/day
same,Death in toxicity experiments,"[2]; tail vein weekly for 3 times, 140, 150 and 160 mg/kg/day, observed over 21 days",no death were observed
same,inhibitory rate on tumor (Day 26),[3]; S1′ i.v. 17.6 μmol/kg once weekly for three weeks,89.7%
same,Toxic CD8 T cells permeated from the tumor tissue,[4]; lung cancer treatment model,more toxic CD8 T cells
same,"Index for tumor-derived immunosuppressive T cells (T reg: CD4+, CD25+, Foxp3+)",[4]; mice receiving tumor treatment,decreased
COCCOCC(=O)NCCCC[C@H](NC(=O)COCCOC)C(=O)N[C@H](C)C(=O)N[C@H](C)C(=O)N[C@H](CC(N)=O)C(=O)Nc1ccc(COC(=O)OC(C(=O)OC2C[C@@]3(O)[C@@H](OC(=O)c4ccccc4)[C@H]4[C@](C)(C(=O)[C@H](OC(C)=O)C(=C2C)C3(C)C)[C@@H](O)CC2OC[C@]24OC(C)=O)[C@@H](NC(=O)c2ccccc2)c2ccccc2)cc1 (some centres unmarked) [Compound A1],inhibitory rate on tumor (Day 26),"[3]; Table 29, i.v. 17.6 μmol/kg once weekly for three weeks",87.5%
COCCOCC(=O)NCCCC[C@H](NC(=O)COCCOC)C(=O)N[C@H](C)C(=O)N[C@H](C)C(=O)N[C@H](CC(N)=O)C(=O)Nc1ccc(COC(=O)OC(C(=O)OC2C[C@@]3(O)[C@@H](OC(=O)c4ccccc4)[C@H]4[C@](C)(C(=O)[C@H](O)C(=C2C)C3(C)C)[C@@H](O)CC2OC[C@]24OC(C)=O)[C@@H](NC(=O)OC(C)(C)C)c2ccccc2)cc1 (some centres unmarked) [Compound B1],inhibitory rate on tumor (Day 26),"[3]; Table 41, i.v. 17.6 μmol/kg once weekly for three weeks",74.56%
same,activation efficiency (%),"[5]; Table 35, water-soluble Docetaxel series and controls",93.4%
"COCCOCC(=O)N[C@H](C)C(=O)N[C@H](C)C(=O)N[C@H](CC(N)=O)C(=O)Nc1ccc(COC(=O)OC(C(=O)OC2C[C@@]3(O)[C@@H](OC(=O)c4ccccc4)[C@H]4[C@](C)(C(=O)[C@H](O)C(=C2C)C3(C)C)[C@@H](O)CC2OC[C@]24OC(C)=O)[C@@H](NC(=O)OC(C)(C)C)c2ccccc2)cc1 (stereo partly drawn) [Compound D1, 2-(2-methoxyethoxy) acetyl-L-Ala-L-Ala-L-Asn-4-amino benzyl-Docetaxel]",inhibitory rate on tumor (Day 26),"[3]; Table 51, 25 mg/kg once weekly for three weeks",68.6%
same,Size of tumor (mm^3) Day 10,[6]; [8],86.45 ± 26.42 mm^3
same,inhibitory rate on tumor Day 10,[6]; [8],75.0
same,Size of tumor (mm^3) Day 24,[6]; [9],143.34 ± 44.42 mm^3
same,inhibitory rate on tumor Day 24,[6]; [9],80.5
same,"Inhibition on tumor growth, in words",[6]; compared with Docetaxel group and control group,greatly improved
same,activation efficiency (%),"[5]; Table 46, Docetaxel D series and controls",91.5%
"COCCOCC(=O)N[C@H](C)C(=O)N[C@H](C)C(=O)N[C@H](CC(N)=O)C(=O)Nc1ccc(COC(=O)N2[C@@H]3CN4C5=C(C(=O)C(N)=C(C)C5=O)[C@H](COC(N)=O)[C@]4(OC)[C@@H]32)cc1 [Compound E1, 2-(2-methoxyethoxy) acetyl-L-Ala-L-Ala-L-Asn-4-amino benzyl mitomycin]",inhibitory rate on tumor (Day 26),"[3]; 15 mg/kg once weekly for three weeks, Day 26",86.7%
same,MTD at 17 days,[7],~90 mg/kg
COCCOCCOCCOCCOCCOCC(=O)N[C@H](C)C(=O)N[C@H](C)C(=O)N[C@H](CC(N)=O)C(=O)Nc1ccc(COC(=O)N2[C@H]3[C@@H]2CN2C4=C(C(=O)C(N)=C(C)C4=O)[C@H](COC(N)=O)[C@]32OC)cc1 [Compound E2],MTD at 17 days,[7],~90 mg/kg
